{"source": "patent US11661396B2", "about": "“Crystalline forms of zuclomiphene citrate” (Apotex Inc., priority 2020, dated 2023)", "key": {"[1]": {"assay": "PXRD studies of capped and uncapped samples maintained in a 40° C./75% RH stability chamber", "format": "physicochemical", "experimental": "Zuclomiphene citrate Form APO-1 can be characterized by a PXRD diffractogram comprising, among other peaks, characteristic peaks, expressed in degrees 2θ (±0.2°), at 8.8°, 9.6° and 11.7°. Preferably, the PXRD diffractogram further comprises at least three peaks, expressed in degrees 2θ (±0.2°), selected from the group consisting of 10.9°, 12.4°, 14.7°, 14.9°, 17.3°, 17.8°, 18.6°, 19.9°, 20.5°, 23.6° and 25.4°. More preferably, the PXRD diffractogram further comprises peaks, expressed in degrees 2θ (±) 0.2°, at 10.9°, 12.4°, 14.7°, 14.9°, 17.3°, 17.8°, 18.6°, 19.9°, 20.5°, 23.6° and 25.4°.\nZuclomiphene citrate Form APO-III can be characterized by a PXRD diffractogram comprising, among other peaks, characteristic peaks, expressed in degrees 2θ (±0.2°), at 8.7°, 9.8° and 10.5°. Preferably, the PXRD diffractogram further comprises at least three peaks, expressed in degrees 2θ (±0.2°), selected from the group consisting of 11.6°, 12.3°, 15.3°, 16.9°, 18.0°, 18.6°, 19.4°, 20.4°, 21.0° and 24.5°. More preferably, the PXRD diffractogram further comprises peaks, expressed in degrees 2θ (±0.2°), at 11.6°, 12.3°, 15.3°, 16.9°, 18.0°, 18.6°, 19.4°, 20.4°, 21.0° and 24.5°. […]\nPXRD diffractograms were recorded on a Bruker D8 Discover powder X-ray diffractometer (Bruker-AXS, Karlsruhe, Germany). […] Raw data were evaluated using the program EVA (Bruker-AXS, Karlsruhe, Germany)."}, "[2]": {"assay": "Thermodynamic stability of the crystalline form", "format": "physicochemical", "description": "Zuclomiphene citrate Form APO-IV can be prepared by gradual addition of a solution of citric acid in a suitable solvent, preferably an alcohol or ketone solvent such as methanol or acetone, to a solution of zuclomiphene free base in a suitable solvent, preferably an alcohol solvent such as 2-methyl-1-propanol or 1-butanol, more preferably an ester solvent, such as ethyl acetate. Preferably, the solution of zuclomiphene free base is heated to an elevated temperature prior to addition of the citric acid solution, preferably in the range of about 50° C. to about 70° C. Following addition, the resulting mixture is preferably charged with Form APO-IV seeds and maintained at elevated temperature for a time (′aged), preferably in the range of about 16 hours to about 4 days, more preferably in the range of about 16 hours to about 48 hours. Following aging, the resulting mixture is preferably cooled to a temperature in the range of about 0° C. to about 35° C., most preferably room temperature, prior to isolation of the solid by filtration and drying, if necessary. Drying can be conducted in vacuo, preferably at a temperature in the range of about 50° C. to about 70° C., preferably for about 18 hours to about 3 days."}, "[3]": {"test_system": "hot flashes in men with prostate cancer on androgen deprivation therapy", "conditions": "50 mg zuclomiphene citrate, interim Phase 2 clinical trial results; cited from earlier work"}}, "note": "Where a name gives a salt, the structure may show the parent alone."}
{"compound": "CCN(CC)CCOc1ccc(/C(=C(\\Cl)c2ccccc2)c2ccccc2)cc1", "note": "[Form APO-I, zuclomiphene citrate]", "values": [{"measurement": "change in the crystalline form (PXRD)", "setting": "[1]; at least 4 weeks", "result": "no change in the crystalline form occurred"}]}
{"compound": "CCN(CC)CCOc1ccc(/C(=C(\\Cl)c2ccccc2)c2ccccc2)cc1", "note": "[Form APO-III, zuclomiphene citrate]", "values": [{"measurement": "change in the crystalline form (PXRD)", "setting": "[1]; at least 8 weeks", "result": "no change in the crystalline form occurred"}]}
{"compound": "CCN(CC)CCOc1ccc(/C(=C(\\Cl)c2ccccc2)c2ccccc2)cc1", "note": "[Form APO-IV, zuclomiphene citrate]", "values": [{"measurement": "thermodynamic stability", "setting": "[2]", "result": "thermodynamically stable"}]}
{"compound": "CCN(CC)CCOc1ccc(/C(=C(\\Cl)c2ccccc2)c2ccccc2)cc1", "note": "[zuclomiphene citrate, 2-[4-[(Z)-2-chloro-1,2-diphenylethenyl]phenoxy]-N,N-diethylethanamine]", "values": [{"measurement": "decrease in moderate to severe hot flashes from baseline", "setting": "[3]", "result": "statistically significant decrease"}]}
